In patent US9113629B2, “4-amino-6-(4-substituted-phenyl)-picolinates and 6-amino-2-(4-substituted-phenyl)-pyrimidine-4-carboxylates and their use as herbicides” (DOW AGROSCIENCES LLC, priority 2013, dated 2015):

Tests used:
Assay in all cases: Post-emergent Test III, herbicidal activity in wheat and barley
Assay type in all cases: in vivo
[1] = tested on: TRZSS: wheat, including spring and winter (Triticum aestivum); details: 21 days after application; for pest or weed control at 35 g/ha / pest or weed control at 70 g/ha: Triticum aestivum, post-emergence, 504 h, read-out: Visual Gorowth Reduction (%) 21 days After Application TRZSS; for pest or weed control at 35 g/ha: 35 g ai/ha; for pest or weed control at 70 g/ha: 70 g ai/ha; for GR20 TRZSS: probit analysis, dose for 20 percent growth reduction (crop)
In short: (§1)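 Plants at the second to third true-leaf stage, grown in a greenhouse at about 18/17 °C with a 14 h photoperiod, were sprayed post-emergence at 187 L/ha with the high rate and ½× to 1/16× serial dilutions in an acetone/DMSO/crop-oil/surfactant carrier. Injury was rated visually at 21 d on a 0–100% scale, and GR20–GR90 were derived by probit analysis.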

[2] = tested on: VERPE: bird's-eye speedwell (veronica persica); details: 21 days after application; for pest or weed control at 35 g/ha / pest or weed control at 70 g/ha: Veronica persica, post-emergence, 504 h, read-out: Visual Gorowth Reduction (%) 21 days After Application VERPE; for pest or weed control at 35 g/ha: 35 g ai/ha; for pest or weed control at 70 g/ha: 70 g ai/ha; for GR50 VERPE / GR80 VERPE: probit analysis; for GR50 VERPE: dose for 50 percent growth reduction; for GR80 VERPE: dose for 80 percent growth reduction
In short: as §1

[3] = tested on: HORSS: barley, including spring and winter (Hordeum vulgare); details: 21 days after application; for pest or weed control at 35 g/ha / pest or weed control at 70 g/ha: Hordeum vulgare, post-emergence, 504 h, read-out: Visual Gorowth Reduction (%) 21 days After Application HORSS; for pest or weed control at 35 g/ha: 35 g ai/ha; for pest or weed control at 70 g/ha: 70 g ai/ha; for GR20 HORSS: probit analysis, dose for 20 percent growth reduction (crop)
In short: as §1

[4] = tested on: SASKR: Russian thistle (Salsola iberica); details: 21 days after application; for pest or weed control at 35 g/ha / pest or weed control at 70 g/ha: Salsola tragus, post-emergence, 504 h, read-out: Visual Gorowth Reduction (%) 21 days After Application SASKR; for pest or weed control at 35 g/ha: 35 g ai/ha; for pest or weed control at 70 g/ha: 70 g ai/ha; for GR50 SASKR / GR80 SASKR: probit analysis; for GR50 SASKR: dose for 50 percent growth reduction; for GR80 SASKR: dose for 80 percent growth reduction
In short: as §1

[5] = tested on: KCHSC: kochia (Kochia scoparia); details: 21 days after application; for pest or weed control at 35 g/ha / pest or weed control at 70 g/ha: Bassia scoparia, post-emergence, 504 h, read-out: Visual Gorowth Reduction (%) 21 days After Application KCHSC; for pest or weed control at 35 g/ha: 35 g ai/ha; for pest or weed control at 70 g/ha: 70 g ai/ha; for GR50 KCHSC / GR80 KCHSC: probit analysis; for GR50 KCHSC: dose for 50 percent growth reduction; for GR80 KCHSC: dose for 80 percent growth reduction
In short: as §1

[6] = tested on: VIOSS: wild pansy (Viola tricolor), field violet (Viola arvensis); details: 21 days after application; for pest or weed control at 35 g/ha / pest or weed control at 70 g/ha: Viola tricolor, post-emergence, 504 h, read-out: Visual Gorowth Reduction (%) 21 days After Application VIOSS; for pest or weed control at 35 g/ha: 35 g ai/ha; for pest or weed control at 70 g/ha: 70 g ai/ha; for GR50 VIOSS / GR80 VIOSS: probit analysis; for GR50 VIOSS: dose for 50 percent growth reduction; for GR80 VIOSS: dose for 80 percent growth reduction
In short: as §1

[7] = tested on: MATSS: scented mayweed (Matricaria chamomilla), pineappleweed (Matricaria matricarioides); details: 21 days after application; for pest or weed control at 35 g/ha / pest or weed control at 70 g/ha: Matricaria chamomilla, post-emergence, 504 h, read-out: Visual Gorowth Reduction (%) 21 days After Application MATSS; for pest or weed control at 35 g/ha: 35 g ai/ha; for pest or weed control at 70 g/ha: 70 g ai/ha; for GR50 MATSS / GR80 MATSS: probit analysis; for GR50 MATSS: dose for 50 percent growth reduction; for GR80 MATSS: dose for 80 percent growth reduction
In short: as §1

Row | Structure (SMILES) | pest or weed control at 35 g/ha [1] [%] | pest or weed control at 70 g/ha [1] [%] | GR20 TRZSS [1] [g ai/ha] | pest or weed control at 35 g/ha [2] [%] | pest or weed control at 70 g/ha [2] [%] | GR50 VERPE [2] [g ai/ha] | GR80 VERPE [2] [g ai/ha] | pest or weed control at 35 g/ha [3] [%] | pest or weed control at 70 g/ha [3] [%] | GR20 HORSS [3] [g ai/ha] | pest or weed control at 35 g/ha [4] [%] | pest or weed control at 70 g/ha [4] [%] | GR50 SASKR [4] [g ai/ha] | GR80 SASKR [4] [g ai/ha] | pest or weed control at 35 g/ha [5] [%] | pest or weed control at 70 g/ha [5] [%] | GR50 KCHSC [5] [g ai/ha] | GR80 KCHSC [5] [g ai/ha] | pest or weed control at 35 g/ha [6] [%] | pest or weed control at 70 g/ha [6] [%] | also measured
1 | COC(=O)c1nc(-c2ccc(I)c(F)c2F)cc(N)c1Cl [Compound 129, Methyl 4-amino-3-chloro-6-(2,3-difluoro-4-iodophenyl)picolinate] | 75 to 84 | 85 to 94 | 1 | 30 to 44 | 45 to 59 | 92 | >140 | 85 to 94 | 85 to 94 | 1 | 75 to 84 | 85 to 94 | 6 | 41 | 85 to 94 | 95 to 100 | 7 | 21 | 75 to 84 | 95 to 100 | GR50 VIOSS [6]: 17 g ai/ha; GR80 VIOSS [6]: 34 g ai/ha; pest or weed control at 35 g/ha [7]: 0 to 29%; pest or weed control at 70 g/ha [7]: 30 to 44%; GR50 MATSS [7]: 89 g ai/ha; GR80 MATSS [7]: 131 g ai/ha
2 | COc1c(N)nc(-c2ccc(Br)c(F)c2F)nc1C(=O)O [Compound 8] | 75 to 84 | 85 to 94 | 1 | 95 to 100 | 95 to 100 | 1 | 1 | 60 to 74 | 75 to 84 | 1 | 85 to 94 | 85 to 94 | 1 | 16 | 95 to 100 | 95 to 100 | 3 | 6 | 85 to 94 | 85 to 94 | GR50 VIOSS [6]: 13 g ai/ha; GR80 VIOSS [6]: 28 g ai/ha; pest or weed control at 35 g/ha [7]: 60 to 74%; pest or weed control at 70 g/ha [7]: 75 to 84%; GR50 MATSS [7]: 26 g ai/ha; GR80 MATSS [7]: 73 g ai/ha
3 | COC(=O)c1nc(-c2ccc(Br)cc2F)c(F)c(N)c1Cl [Compound 52] | 85 to 94 | 85 to 94 | 1 | 75 to 84 | 95 to 100 | 20 | 37 | 85 to 94 | 95 to 100 | 1 | 60 to 74 | 75 to 84 | 4 | 84 | 75 to 84 | 85 to 94 | 5 | 38 | 95 to 100 | 95 to 100 | GR50 VIOSS [6]: 12 g ai/ha; GR80 VIOSS [6]: 19 g ai/ha; pest or weed control at 35 g/ha [7]: 0 to 29%; pest or weed control at 70 g/ha [7]: 60 to 74%; GR50 MATSS [7]: 62 g ai/ha; GR80 MATSS [7]: 91 g ai/ha
4 | Nc1c(F)c(-c2ccc(I)c(F)c2F)nc(C(=O)O)c1Cl [Compound 141, 4-amino-3-chloro-6-(2,3-difluoro-4-iodophenyl)-5-fluoropicolinic acid] | 75 to 84 | 85 to 94 | 1 | 75 to 84 | 85 to 94 | 14 | 43 | 85 to 94 | 95 to 100 | 1 | 75 to 84 | 85 to 94 | 4 | 40 | 75 to 84 | 85 to 94 | 7 | 28 | 95 to 100 | 95 to 100 | GR50 VIOSS [6]: 7 g ai/ha; GR80 VIOSS [6]: 11 g ai/ha; pest or weed control at 35 g/ha [7]: 75 to 84%; pest or weed control at 70 g/ha [7]: 95 to 100%; GR50 MATSS [7]: 15 g ai/ha; GR80 MATSS [7]: 33 g ai/ha
5 | COc1c(N)nc(-c2ccc(I)c(F)c2F)nc1C(=O)O [Compound 89] | 75 to 84 | 85 to 94 | 1 | 95 to 100 | 95 to 100 | 3 | 6 | 60 to 74 | 60 to 74 | 3 | 85 to 94 | 85 to 94 | 9 | 21 | 85 to 94 | 85 to 94 | 12 | 25 | 95 to 100 | 95 to 100 | GR50 VIOSS [6]: 11 g ai/ha; GR80 VIOSS [6]: 19 g ai/ha; pest or weed control at 35 g/ha [7]: 75 to 84%; pest or weed control at 70 g/ha [7]: 85 to 94%; GR50 MATSS [7]: 14 g ai/ha; GR80 MATSS [7]: 36 g ai/ha
6 | Nc1c(F)c(-c2ccc(Br)c(F)c2)nc(C(=O)O)c1Cl [Compound 21] | 75 to 84 | 85 to 94 | 1 | 30 to 44 | 0 to 29 | 130 | >140 | 85 to 94 | 95 to 100 | 1 | 75 to 84 | 85 to 94 | 1 | 25 | 95 to 100 | 95 to 100 | 1 | 1 | 95 to 100 | 95 to 100 | GR50 VIOSS [6]: 4 g ai/ha; GR80 VIOSS [6]: 6 g ai/ha; pest or weed control at 35 g/ha [7]: 85 to 94%; pest or weed control at 70 g/ha [7]: 85 to 94%; GR50 MATSS [7]: 5 g ai/ha; GR80 MATSS [7]: 31 g ai/ha
7 | COC(=O)c1nc(-c2ccc(I)c(F)c2F)c(F)c(N)c1Cl [Compound 99] | 85 to 94 | 85 to 94 | 1 | 95 to 100 | 95 to 100 | 8 | 17 | 85 to 94 | 95 to 100 | 1 | 75 to 84 | 75 to 84 | 10 | 48 | 75 to 84 | 85 to 94 | 9 | 27 | 95 to 100 | 95 to 100 | GR50 VIOSS [6]: 9 g ai/ha; GR80 VIOSS [6]: 19 g ai/ha; pest or weed control at 35 g/ha [7]: 30 to 44%; pest or weed control at 70 g/ha [7]: 45 to 59%; GR50 MATSS [7]: 63 g ai/ha; GR80 MATSS [7]: >140 g ai/ha
